# Measurements as given in patent publication EP0409414B1, “Diaryl ether cycloalkanes” (IMPERIAL CHEMICAL INDUSTRIES PLC, priority 1989, dated 1991).
# Molecular target: T1, 5-LO (Homo sapiens, UniProt P09917)
# T1 construct: incubating a test compound with heparinised human blood, prior to challenge with the calcium ionophore A23187; endogenous in cells; host or cells: heparinised human whole blood (leukocytes)
# T1 sequence (P09917 1-674): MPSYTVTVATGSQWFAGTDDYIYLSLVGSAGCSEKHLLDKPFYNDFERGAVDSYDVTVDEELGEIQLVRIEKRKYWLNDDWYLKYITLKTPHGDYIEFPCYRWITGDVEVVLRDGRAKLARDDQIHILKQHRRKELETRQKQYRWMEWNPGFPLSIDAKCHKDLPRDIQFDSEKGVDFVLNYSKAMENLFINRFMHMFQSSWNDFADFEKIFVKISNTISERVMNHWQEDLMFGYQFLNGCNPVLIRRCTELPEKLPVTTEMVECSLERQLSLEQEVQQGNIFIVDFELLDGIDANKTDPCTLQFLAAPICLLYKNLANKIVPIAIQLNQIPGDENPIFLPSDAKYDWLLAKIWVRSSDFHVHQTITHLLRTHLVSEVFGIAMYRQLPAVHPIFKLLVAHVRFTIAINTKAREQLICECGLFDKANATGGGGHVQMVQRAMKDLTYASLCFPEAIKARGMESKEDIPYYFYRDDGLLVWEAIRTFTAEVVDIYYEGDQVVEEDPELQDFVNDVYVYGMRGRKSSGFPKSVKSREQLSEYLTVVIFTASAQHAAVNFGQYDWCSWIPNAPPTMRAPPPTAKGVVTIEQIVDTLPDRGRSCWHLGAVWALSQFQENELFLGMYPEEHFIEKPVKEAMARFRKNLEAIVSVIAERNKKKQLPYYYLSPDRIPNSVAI
# Test: heparinised human blood challenged with calcium ionophore A23187, radioimmunoassay of LTB4 (test b)
# Format: cell-based
# Conditions: individual compounds, read-out: IC50 against LTB4
# Experimental: As stated previously, the compounds of the formula I are inhibitors of the enzyme 5-LO. […] This test provides a measure of the intrinsic inhibitory properties against soluble 5-LO in an extracellular environment. • b) An in vitro assay system involving incubating a test compound with heparinised human blood, prior to challenge with the calcium ionophore A23187 and then indirectly measuring the inhibitory effects on 5-LO by assaying the amount of LTB4 using the specific radioimmunoassay described by Carey and Forder (F. Carey and R.A. Forder, Brit. […] The effects of a test compound on the enzyme cyclooxygenase (which is involved in the alternative metabolic pathway for arachidonic acid and gives rise to prostaglandins, thromboxanes and related metabolites) may be measured at the same time using the specific radioimmunoassay for thromboxane B2(TxB2) described by Carey and Forder (see above). […] It permits the selectivity of the inhibitory effect on 5-LO or cyclooxygenase to be assessed. • c) An ex vivo assay system, which is a variation of test b) above, involving administration of a test compound (usually orally as the suspension produced when a solution of the test compound in dimethylsulphoxide is added to carboxymethylcellulose), blood collection, heparinisation, challenge with A23187 and radioimmunoassay of LTB4 and TxB2. […]
row,SMILES,IC50
1,"CO[C@H]1CCC[C@@]1(OC)c1cc(F)cc(Sc2ccc3ccccc3c2)c1 (racemic) [Example 1, (1RS,2SR)-1-[5-fluoro-3-(naphth-2-ylthio)phenyl]-1,2-dimethoxycyclopentane]",~200 nM
2,"C=CCO[C@@]1(c2cc(F)cc(Sc3ccc4ccccc4c3)c2)CCC[C@@H]1OC (racemic) [Example 2, (1RS,2SR)-1-allyloxy-1-[5-fluoro-3-(naphth-2-ylthio)phenyl]-2-methoxycyclopentane]",~200 nM
